The source of these data is US20230203060A1 (GENFLEET THERAPEUTICS (SHANGHAI) INC., priority 2020, published 2023).

Assay type in all cases: cell-based, human
Assay [1] concerns KRAS G12C mutant NCI-H358 cells. The assay can be described thus: Cell proliferation inhibition experiment, 3D spheroid, CellTiter-Glo, NCI-H358. The note with it: Homo sapiens, NCI-H358, 120 h, NCI-H358 (KRAS G12C mutant) 3D spheroid, 5 days with compound, CellTiter-Glo; read-out: H358 IC50. An outline of the steps: (§1)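 NCI-H358 (800 cells/well, RPMI-1640) and A549 (400 cells/well, F-12K) grown overnight as 3D spheroids in 2% FBS medium, then exposed 5 days to 3.16-fold compound dilutions at 0.1% DMSO. Viability measured by CellTiter-Glo luminescence; inhibition relative to DMSO and medium blank, IC50 from four-parameter fit.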
In general terms: Cellular ATP, detected with luciferase, serves as a proxy for viable cell number.

Assay [2] concerns KRAS G12C mutant MIA PaCa-2 cells. The assay can be described thus: Cell proliferation inhibition experiment, 3D spheroid, CellTiter-Glo, MIA PaCa-2. The note with it: Homo sapiens, MIA PaCa-2, 120 h, 3D cell model in 384-well spheroid plate, 5 days, CellTiter-Glo; read-out: MIA-PaCa2 IC50. The essentials: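 200 MIA PaCa-2 cells/well grown overnight as 3D spheroids, then exposed to 3.16-fold compound dilutions (0.1% DMSO final) for 5 days. Viability read by CellTiter-Glo luminescence; inhibition calculated against DMSO and medium-only controls, and IC50 fitted by four-parameter model.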

Assay [3] relates to A549 cells (KRAS G12S mutant). The assay can be described thus: Cell proliferation inhibition experiment, 3D spheroid, CellTiter-Glo, A549. Conditions: Homo sapiens, A549, 120 h, A549 (KRAS G12S mutant) 3D spheroid, 5 days with compound, CellTiter-Glo; read-out: A549 IC50. An outline of the steps: as §1

SMILES strings stand for the structures. Counter-ions that a name gives are not always drawn. Bounds are passed on as bounds.

With `C=CC(=O)N1CCN2C(=O)c3c(N4CC[C@@H]5C[C@@H]54)nc(-c4c(O)cccc4F)c(Cl)c3OC[C@H]2C1` (single isomer, unassigned) [Z39-2], the values for the IC50 in assay [1] and in assay [2] were 7.8 nM and 13 nM, respectively.
As for `C=CC(=O)N1CCN2C(=O)c3c(N4C[C@H](O)[C@H]4C)nc(-c4c(O)cccc4F)c(Cl)c3OC[C@H]2C1` (single isomer, unassigned) [Z102-4], in assay [1], the IC50 (usually the concentration at which inhibition is half-maximal) stood at 15.4 nM.
Consider `C=CC(=O)N1CCN2C(=O)c3c(N4CCN(C5COC5)C[C@@H]4C)nc(-c4c(O)cccc4F)c(Cl)c3OC[C@H]2C1` (single isomer, unassigned) [Z239-1], for which the IC50 in assay [1] is 15 nM; in assay [2] it was 20 nM.
Take `C=CC(=O)N1CCN2C(=O)c3c(N4C[C@@H](CO)CC4(C)C)nc(-c4c(O)cccc4F)c(Cl)c3OC[C@H]2C1` (single isomer, unassigned) [Z240-1]: the IC50 in assay [1] was found to be 2.5 nM; in assay [3], 10000 nM; in assay [2] it was 3.7 nM.
On to `C=CC(=O)N1CCN2C(=O)c3c(N4C[C@H](CO)CC4(C)C)nc(-c4c(O)cccc4F)c(Cl)c3OC[C@H]2C1` (single isomer, unassigned) [Z240-2], for which the half-maximal inhibitory concentration (IC50) in assay [1] is 1.9 nM; in assay [3], greater than 10000 nM; in assay [2], 3.3 nM.
For the compound `C=CC(=O)N1CCN2C(=O)c3c(N4CC[C@H](OC)C4(C)C)nc(-c4c(O)cccc4F)c(Cl)c3OC[C@H]2C1` (single isomer, unassigned) [Z241a-1], the IC50 in assay [1] was 1.4 nM; in assay [3], 9550 nM; in assay [2], 4.3 nM.
As for `C=CC(=O)N1CCN2C(=O)c3c(N4CC[C@@H](OC)C4(C)C)nc(-c4c(O)cccc4F)c(Cl)c3OC[C@H]2C1` (single isomer, unassigned) [Z241a-2], the values for the IC50 in assay [1], in assay [3] and in assay [2] were 0.7 nM, 3040 nM and 1.5 nM, respectively.
On to `C=CC(=O)N1CCN2C(=O)c3c(N4C[C@@](C)(O)CC4(C)C)nc(-c4c(O)cccc4F)c(Cl)c3OC[C@H]2C1` (single isomer, unassigned) [Z243-1], for which the figures for the IC50 in assay [1], in assay [3] and in assay [2] were 0.6 nM, 3100 nM and 1.5 nM, respectively.
Consider `C=CC(=O)N1CCN2C(=O)c3c(N4C[C@](C)(O)CC4(C)C)nc(-c4c(O)cccc4F)c(Cl)c3OC[C@H]2C1` (single isomer, unassigned) [Z243-2], for which the IC50 in assay [1] is 11.1 nM; in assay [3], 3440 nM; in assay [2] it was 22.2 nM.
For `C=CC(=O)N1CCN2C(=O)c3c(N4C[C@@H](OC)CC4(C)C)nc(-c4c(O)cccc4F)c(Cl)c3OC[C@H]2C1` (single isomer, unassigned) [Z244-1], in that order: 1.9 nM, 2900 nM and 8 nM.
`C=CC(=O)N1CCN2C(=O)c3c(N4C[C@H](OC)CC4(C)C)nc(-c4c(O)cccc4F)c(Cl)c3OC[C@H]2C1` (single isomer, unassigned) [Z244-2]: the values for the IC50 in assay [1], in assay [3] and in assay [2] were 0.5 nM, 2080 nM and 1 nM, respectively.
For `C=CC(=O)N1CCN2C(=O)c3c(N4C[C@@H](O)CC4(C)C)nc(-c4c(O)cccc4F)c(F)c3OC[C@H]2C1` (single isomer, unassigned) [Z256-1], in that order: 2.2 nM, 12100 nM and 5 nM.
Taken in the same sequence, the figures for `C=CC(=O)N1CCN2C(=O)c3c(N4C[C@@H](OC)CC4(C)C)nc(-c4c(O)cccc4F)c(F)c3OC[C@H]2C1` (single isomer, unassigned) [Z256a-1] were 3.4 nM, 9160 nM and 11.6 nM.
With `C=CC(=O)N1CCN2C(=O)c3c(N4C[C@H](OC)CC4(C)C)nc(-c4c(O)cccc4F)c(F)c3OC[C@H]2C1` (single isomer, unassigned) [Z256a-2], the IC50 in assay [1] is 1.4 nM; in assay [3], 9270 nM; in assay [2] it was 3.8 nM.
For `C=CC(=O)N1CCN2C(=O)c3c(N4C[C@@](C)(O)CC4(C)C)nc(-c4c(O)cccc4F)c(F)c3OC[C@H]2C1` (single isomer, unassigned) [Z256b-1], in that order: 2.8 nM, 10200 nM and 6.2 nM.
Taken in the same sequence, the figures for `C=CC(=O)N1CCN2C(=O)c3c(N4Cc5cn(C)nc5[C@H]4C)nc(-c4c(O)cccc4F)c(Cl)c3OC[C@H]2C1` (single isomer, unassigned) [Z291-1S, trifluoroacetate] were 18.4 nM, 9220 nM and 30.7 nM.
Consider `C=CC(=O)N1CCN2C(=O)c3c(N4CCO[C@](C)(COC)C4)nc(-c4c(O)cccc4F)c(Cl)c3OC[C@H]2C1` (single isomer, unassigned) [Z332-1], for which the IC50 was 16 nM in assay [1] and 17 nM in assay [2].
Turning to `C=CC(=O)N1CCN2C(=O)c3c(N4CC(O)CC4(C)C)nc(-c4c(O)cccc4F)c(C)c3OC[C@H]2C1` (single isomer, unassigned) [Z336-2], the IC50 in assay [1] is 5 nM.
With `C=CC(=O)N1CCN2C(=O)c3c(N4C[C@H](N(C)C)C[C@@H]4C)nc(-c4c(O)cccc4F)c(Cl)c3OC[C@H]2C1` [Z237-1, (6aR)-8-acryloyl-4-chloro-1-((2S,4R)-4-(dimethylamino)-2-methylpyrrolidin-1-yl)-3-(2-fluoro-6-hydroxyphenyl)-6,6a,7,8,9,10-hexahydro-12H-pyrazino[2,1-c]pyrido[3,4-f][1,4]oxazepin-12-one], the IC50 in assay [1] stood at 14.6 nM.
`C=CC(=O)N1CCN2C(=O)c3c(N4CC(CO)CC4(C)C)nc(-c4c(O)cccc4F)c(Cl)c3OC[C@H]2C1` (stereo partly drawn) [Z240, (6aR)-8-acryloyl-4-chloro-3-(2-fluoro-6-hydroxyphenyl)-1-(4-(hydroxymethyl)-2,2-dimethylpyrrolidin-1-yl)-6,6a,7,8,9,10-hexahydro-12H-pyrazino[2,1-c]pyrido[3,4-f][1,4]oxazepin-12-one]: in assay [1], the 50% inhibitory concentration (IC50) came to 2.4 nM.
Consider `C=CC(=O)N1CCN2C(=O)c3c(N4CCC(O)C4(C)C)nc(-c4c(O)cccc4F)c(Cl)c3OC[C@H]2C1` (stereo partly drawn) [Z241, (6aR)-8-acryloyl-1-(3-hydroxy-2,2-dimethylpyrrolidin-1-yl)-4-chloro-3-(2-fluoro-6-hydroxyphenyl)-6,6a,7,8,9,10-hexahydro-12H-pyrazino[2,1-c]pyrido[3,4-f][1,4]oxazepin-12-one], for which the IC50 in assay [1] came to 2.6 nM; in assay [2], 4.9 nM.
Consider `C=CC(=O)N1CCN2C(=O)c3c(N4CC(C)(O)CC4(C)C)nc(-c4c(O)cccc4F)c(Cl)c3OC[C@H]2C1` (stereo partly drawn) [Z243, (6aR)-8-acryloyl-4-chloro-3-(2-fluoro-6-hydroxyphenyl)-1-(4-hydroxy-2,2,4-trimethylpyrrolidin-1-yl)-6,6a,7,8,9,10-hexahydro-12H-pyrazino[2,1-c]pyrido[3,4-f][1,4]oxazepin-12-one], for which the values for the IC50 in assay [1] and in assay [2] were 2.2 nM and 4.2 nM, respectively.
Taken in the same sequence, the figures for `C=CC(=O)N1CCN2C(=O)c3c(N4CC(OC)CC4(C)C)nc(-c4c(O)cccc4F)c(Cl)c3OC[C@H]2C1` (stereo partly drawn) [Z244, (6aR)-8-acryloyl-4-chloro-3-(2-fluoro-6-hydroxyphenyl)-1-(4-methoxy-2,2-dimethylpyrrolidin-1-yl)-12-oxo-6,6a,7,8,9,10-hexahydro-12H-pyrazino[2,1-c]pyrido[3,4-f][1,4]oxazepin-12-one] were 2.9 nM and 7 nM.
Consider `C=CC(=O)N1CCN2C(=O)c3c(N4Cc5cn(C)nc5C4(C)C)nc(-c4c(O)cccc4F)c(Cl)c3OC[C@H]2C1` [Z310, (6aR)-8-acryloyl-1-(2,6,6-trimethylpyrrolo[3,4-c]pyrazol-5(2H,4H,6H)-yl)-4-chloro-3-(2-fluoro-6-hydroxyphenyl)-6,6a,7,8,9,10-hexahydro-12H-pyrazino[2,1-c]pyrido[3,4-f][1,4]oxazepin-12-one], for which the values for the IC50 in assay [1] and in assay [2] were 10.6 nM and 26 nM, respectively.
`C=CC(=O)N1CCN2C(=O)c3c(N4CCN(C5CC5)C[C@@H]4C)nc(-c4c(O)cccc4F)c(Cl)c3OC[C@H]2C1` [Z312-1, (6aR)-8-acryloyl-4-chloro-1-((S)-4-cyclopropyl-2-methylpiperazin-1-yl)-3-(2-fluoro-6-hydroxyphenyl)-6,6a,7,8,9,10-hexahydro-12H-pyrazino[2,1-c]pyrido[3,4-f][1,4]oxazepin-12-one]: in assay [1], the IC50 was 13.5 nM.
Regarding `C=CC(=O)N1CCN2C(=O)c3c(N4CC(=O)N(CC)C[C@@H]4C)nc(-c4c(O)cccc4F)c(Cl)c3OC[C@H]2C1` [Z319-1, (6aR)-8-acryloyl-4-chloro-1-((S)-4-ethyl-2-methyl-5-oxopiperazin-1-yl)-3-(2-fluoro-6-hydroxyphenyl)-6,6a,7,8,9,10-hexahydro-12H-pyrazino[2,1-c]pyrido[3,4-f][1,4]oxazepin-12-one], the results for the IC50 in assay [1] and in assay [3] were 2.3 nM and greater than 30000 nM, respectively.
On to `C=CC(=O)N1CCN2C(=O)c3c(N4CCN(CCOC)C(C)(C)C4)nc(-c4c(O)cccc4F)c(Cl)c3OC[C@H]2C1` [Z321, (6aR)-8-acryloyl-4-chloro-3-(2-fluoro-6-hydroxyphenyl)-1-(4-(2-methoxyethyl)-3,3-dimethylpiperazin-1-yl)-6,6a,7,8,9,10-hexahydro-12H-pyrazino[2,1-c]pyrido[3,4-f][1,4]oxazepin-12-one], for which the values for the IC50 in assay [1] and in assay [2] were 4.5 nM and 7 nM, respectively.
